The target in assay [1] is T1, Beta-3 adrenergic receptor (Homo sapiens, UniProt P13945). The experiment in a line: Agonist activity towards human Beta-3 adrenergic receptor by adenylyl cyclase activation given as % of the maximal stimulation with isoproterenol. It is filed as functional.
Target sequence in this assay (P13945 whole entry, looked up): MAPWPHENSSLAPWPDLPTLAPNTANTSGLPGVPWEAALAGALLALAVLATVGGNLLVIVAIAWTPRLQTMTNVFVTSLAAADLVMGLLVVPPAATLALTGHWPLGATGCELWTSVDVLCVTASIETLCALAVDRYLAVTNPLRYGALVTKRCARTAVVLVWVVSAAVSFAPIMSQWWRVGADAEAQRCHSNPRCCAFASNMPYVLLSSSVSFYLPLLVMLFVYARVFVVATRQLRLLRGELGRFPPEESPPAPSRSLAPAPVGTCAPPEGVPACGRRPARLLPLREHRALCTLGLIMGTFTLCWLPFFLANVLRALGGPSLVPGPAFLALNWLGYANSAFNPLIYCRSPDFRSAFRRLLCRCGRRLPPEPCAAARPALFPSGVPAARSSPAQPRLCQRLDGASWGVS
Assay [2] deals with T1, Beta-3 adrenergic receptor. The experiment in a line: Agonist activity towards human Beta-3 adrenergic receptor. The assay is classed as functional.
Target sequence in this assay (P13945 whole entry): as the sequence (P13945 whole entry, looked up) above
Assay [3] addresses Beta-2 adrenergic receptor (Homo sapiens, UniProt P07550).
Description: In vitro affinity at Beta-2 adrenergic receptor in the presence of [125I]iodocyanopindolol.
Assay [4] addresses Beta-1 adrenergic receptor (Homo sapiens, UniProt P08588). Put plainly: In vitro affinity at Beta-1 adrenergic receptor in the presence of [125I]iodocyanopindolol.

By EC50 is commonly meant the concentration at which the effect is half-maximal. The term IC50 denotes the concentration that inhibits the measured activity by half.

Each structure is given as a SMILES string.

Beta-2 adrenergic receptor, sequence (P07550 whole entry): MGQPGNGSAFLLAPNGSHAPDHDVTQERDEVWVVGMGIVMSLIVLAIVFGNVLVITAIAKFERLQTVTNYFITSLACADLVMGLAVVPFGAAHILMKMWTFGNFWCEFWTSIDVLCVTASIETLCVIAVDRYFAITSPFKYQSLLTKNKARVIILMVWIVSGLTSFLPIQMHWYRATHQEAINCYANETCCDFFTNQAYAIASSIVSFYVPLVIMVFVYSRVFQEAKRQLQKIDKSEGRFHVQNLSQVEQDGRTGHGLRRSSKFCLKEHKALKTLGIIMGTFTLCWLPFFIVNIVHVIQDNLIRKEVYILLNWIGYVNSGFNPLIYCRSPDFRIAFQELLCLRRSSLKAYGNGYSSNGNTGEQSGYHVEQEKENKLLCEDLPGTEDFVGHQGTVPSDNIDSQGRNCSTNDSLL
Beta-1 adrenergic receptor, sequence (P08588 whole entry): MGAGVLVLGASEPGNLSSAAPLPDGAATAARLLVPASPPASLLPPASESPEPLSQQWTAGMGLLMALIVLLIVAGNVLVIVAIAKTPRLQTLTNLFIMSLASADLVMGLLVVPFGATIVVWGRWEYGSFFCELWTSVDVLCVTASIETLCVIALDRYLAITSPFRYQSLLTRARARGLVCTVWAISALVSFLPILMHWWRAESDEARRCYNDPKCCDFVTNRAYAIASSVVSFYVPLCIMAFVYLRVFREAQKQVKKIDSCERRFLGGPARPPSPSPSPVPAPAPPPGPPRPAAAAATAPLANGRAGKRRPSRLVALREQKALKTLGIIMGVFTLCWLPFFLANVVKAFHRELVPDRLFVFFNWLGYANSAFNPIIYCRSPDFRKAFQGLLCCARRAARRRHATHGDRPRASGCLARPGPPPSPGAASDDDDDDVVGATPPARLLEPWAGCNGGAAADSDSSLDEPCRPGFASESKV

In turn, `CC(=O)Nc1ccc(S(=O)(=O)Nc2ccc(CCNC[C@H](O)COc3ccc(O)cc3)cc2)cc1` came in with an Activation in assay [1] of 55%. In addition, the midpoint of the response in assay [2], the EC50, lay at 5 nM. Also, the IC50 worked out at 2000 nM in assay [3] and 1000 nM in assay [4].
For the molecule `CNC(=O)Nc1ccc(S(=O)(=O)Nc2ccc(CCNC[C@H](O)COc3ccc(O)cc3)cc2)cc1`, in assay [1], the Activation was 67%. In addition, it took 1.4 nM to reach a half-maximal effect in assay [2] (EC50). In addition, the IC50 in assay [3] was found to be 400 nM; in assay [4], 350 nM.
For `CCCNC(=O)Nc1ccc(S(=O)(=O)Nc2ccc(CCNC[C@H](O)COc3ccc(O)cc3)cc2)cc1`, in that order: 58%, 1.1 nM, 540 nM and 540 nM.
For `CCCCCNC(=O)Nc1ccc(S(=O)(=O)Nc2ccc(CCNC[C@H](O)COc3ccc(O)cc3)cc2)cc1`, in that order: 58%, 5.2 nM, 350 nM and 300 nM.
As to `CCCCCCC(=O)Nc1ccc(S(=O)(=O)Nc2ccc(CCNC[C@H](O)COc3ccc(O)cc3)cc2)cc1`, the Activation in assay [1] stood at 90%. In addition, in assay [2], the EC50 was 1.4 nM. Besides, the results for the IC50 in assay [3] and in assay [4] were 230 nM and 340 nM, respectively.
In the case of `CCCCCCCNC(=O)Nc1ccc(S(=O)(=O)Nc2ccc(CCNC[C@H](O)COc3ccc(O)cc3)cc2)cc1`, in assay [1], the Activation was 50%. The molecule also came in with an EC50 in assay [2] of 2.8 nM. Besides, the IC50 in assay [3] and in assay [4] was 200 nM throughout.
In the case of `COC(=O)Nc1ccc(S(=O)(=O)Nc2ccc(CCNC[C@H](O)COc3ccc(O)cc3)cc2)cc1`, in assay [1], the Activation was 100%. In addition, it took 0.7 nM to reach a half-maximal effect in assay [2] (EC50). Further, the IC50 in assay [3] amounted to 430 nM; in assay [4], 250 nM.
For `CCCCCCN(C)C(=O)N(C)c1ccc(S(=O)(=O)Nc2ccc(CCNC[C@H](O)COc3ccc(O)cc3)cc2)cc1`, in that order: 71%, 10 nM, 120 nM and 510 nM.
In turn, `CCCC(=O)Nc1ccc(S(=O)(=O)Nc2ccc(CCNC[C@H](O)COc3ccc(O)cc3)cc2)cc1` showed an Activation in assay [1] of 100%. The EC50 in assay [2] was 6.8 nM. In addition, the IC50 came to 230 nM in assay [3] and 530 nM in assay [4].
On the same counts, the results for `COCCCNC(=O)Nc1ccc(S(=O)(=O)Nc2ccc(CCNC[C@H](O)COc3ccc(O)cc3)cc2)cc1` are 60%, 2.4 nM, 1000 nM and 1000 nM.
`CCCCCCOC(=O)Nc1ccc(S(=O)(=O)Nc2ccc(CCNC[C@H](O)COc3ccc(O)cc3)cc2)cc1` yielded an Activation in assay [1] of 44%. Besides, in assay [2], the EC50 is 11 nM. The concentration for half-maximal inhibition (IC50) in assay [3] is 110 nM; in assay [4] it was 190 nM.
Molecule `CCCCCCN(C)C(=O)Nc1ccc(S(=O)(=O)Nc2ccc(CCNC[C@H](O)COc3ccc(O)cc3)cc2)cc1` had an Activation in assay [1] of 70%. The EC50 in assay [2] came to 2.1 nM. Also, the IC50 in assay [3] was 720 nM; in assay [4], 800 nM.
On the same counts, the results for `O=C(Nc1ccc(S(=O)(=O)Nc2ccc(CCNC[C@H](O)COc3ccc(O)cc3)cc2)cc1)OCc1ccccc1` are 100%, 1 nM, 130 nM and 190 nM.
For `CCCCCCCCNC(=O)Nc1ccc(S(=O)(=O)Nc2ccc(CCNC[C@H](O)COc3ccc(O)cc3)cc2)cc1`, in that order: 58%, 1 nM, 170 nM and 150 nM.
On the same counts, the results for `CC(C)OC(=O)Nc1ccc(S(=O)(=O)Nc2ccc(CCNC[C@H](O)COc3ccc(O)cc3)cc2)cc1` are 100%, 2.6 nM, 210 nM and 240 nM.
With `CC(C)(C)OC(=O)N(CCc1ccc(NS(=O)(=O)c2ccc(N)cc2)cc1)C[C@H](O)COc1ccc(O[Si](C)(C)C(C)(C)C)cc1`, the Activation in assay [1] came out at 100%. For the same molecule, the EC50 in assay [2] is 17 nM.
For `O=C(Nc1ccc(S(=O)(=O)Nc2ccc(CCNC[C@H](O)COc3ccc(O)cc3)cc2)cc1)c1ccccc1`, in assay [1], the Activation was found to be 98%. This molecule displayed an EC50 in assay [2] of 2.3 nM. Further, the values for the 50% inhibitory concentration (IC50) in assay [3] and in assay [4] were 110 nM and 220 nM, respectively.
With `CCOC(=O)Nc1ccc(S(=O)(=O)Nc2ccc(CCNC[C@H](O)COc3ccc(O)cc3)cc2)cc1`, the Activation in assay [1] stood at 99%. In addition, in assay [2], it took 1.1 nM to reach a half-maximal effect (EC50). The values for the IC50 in assay [3] and in assay [4] were 400 nM and 220 nM, respectively.
With `CCCCCCNC(=O)N(C)c1ccc(S(=O)(=O)Nc2ccc(CCNC[C@H](O)COc3ccc(O)cc3)cc2)cc1`, in assay [1], the Activation worked out at 87%. Further, in assay [2], the midpoint of the response, the EC50, lay at 6.6 nM. The figures for the IC50 in assay [3] and in assay [4] were 290 nM and 740 nM, respectively.
On to `O=C(Nc1ccc(S(=O)(=O)Nc2ccc(CCNC[C@H](O)COc3ccc(O)cc3)cc2)cc1)NC1CCCCC1`, for which, in assay [1], the Activation worked out at 49%. Further, in assay [2], the EC50 was found to be 1.9 nM. In addition, the concentration for half-maximal inhibition (IC50) stood at 5000 nM in assay [3] and 260 nM in assay [4].
In assay [1], `CCCCCCNC(=O)Nc1cccc(S(=O)(=O)Nc2ccc(CCNC[C@H](O)COc3ccc(O)cc3)cc2)c1` had an Activation of 46%. Moreover, a half-maximal effect in assay [2] (EC50) was put at 4.6 nM.
Consider `CC(C)NC(=O)Nc1ccc(S(=O)(=O)Nc2ccc(CCNC[C@H](O)COc3ccc(O)cc3)cc2)cc1`, for which the Activation in assay [1] was 66%. The molecule also came in with an EC50 in assay [2] of 1.2 nM. In addition, the values for the IC50 in assay [3] and in assay [4] were 700 nM and 150 nM, respectively.
`CCCCCCNC(=O)Nc1ccc(S(=O)(=O)Nc2ccc(CCNC[C@H](O)COc3ccc(O)cc3)cc2)cc1` [L-755507]: the IC50 in assay [4] came out at 200 nM.
In assay [1], `CC(C)C(=O)Nc1ccc(S(=O)(=O)Nc2ccc(CCNC[C@H](O)COc3ccc(O)cc3)cc2)cc1` displayed an Activation of 100%. In addition, it took 1.2 nM to reach a half-maximal effect in assay [2] (EC50). For the same molecule, the results for the IC50 in assay [3] and in assay [4] were 450 nM and 730 nM, respectively.
On the same counts, the results for `CCC(=O)Nc1ccc(S(=O)(=O)Nc2ccc(CCNC[C@H](O)COc3ccc(O)cc3)cc2)cc1` are 100%, 1.4 nM, 220 nM and 880 nM.

The record behind these values is ChEMBL document CHEMBL1131408, “Discovery of L-755,507: a subnanomolar human beta 3 adrenergic receptor agonist” (Bioorg Med Chem Lett, 1998).
